Tests used:
Test in all cases: relative viability (nuclei count vs DMSO), 5 days (fraction); higher = more cells survive
[1] = compound: O=C(O)c1ccc2c(c1)nc(Nc1cccc(Cl)c1)c1ccncc12 [Silmitasertib] + Cc1cc(Nc2cc(N3CCN(C)CC3)nc(Sc3ccc(NC(=O)C4CC4)cc3)n2)n[nH]1 [Tozasertib] (partner 0.1 µM)
How it was run: (§1)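 Relative viability equals treated-well nuclei counts divided by vehicle-well nuclei counts. Counts came from 4× images of lung cancer cell lines grown in 1536-well plates for 5 days after pin-tool dosing on the day after seeding. Dosing used one drug alone or a fixed anchor-drug dose plus five library-drug doses (not always all listed) in √10 steps, and values are medians of duplicate plates.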

Silmitasertib + AZD7762 = compound: O=C(O)c1ccc2c(c1)nc(Nc1cccc(Cl)c1)c1ccncc12 [Silmitasertib] + NC(=O)Nc1cc(-c2cccc(F)c2)sc1C(=O)N[C@H]1CCCNC1 [AZD7762] (partner 0.2 µM)
How it was run: as §1

[2] = compound: O=C(O)c1ccc2c(c1)nc(Nc1cccc(Cl)c1)c1ccncc12 [Silmitasertib] + CC(=O)Nc1cccc(-n2c(=O)n(C3CC3)c(=O)c3c(Nc4ccc(I)cc4F)n(C)c(=O)c(C)c32)c1 [Trametinib] (partner 0.02 µM)
How it was run: as §1

[3] = compound: O=C(O)c1ccc2c(c1)nc(Nc1cccc(Cl)c1)c1ccncc12 [Silmitasertib] + Cc1nc(Nc2ncc(C(=O)Nc3c(C)cccc3Cl)s2)cc(N2CCN(CCO)CC2)n1 [Dasatinib] (partner 0.075 µM)
How it was run: as §1

[4] = compound: O=C(O)c1ccc2c(c1)nc(Nc1cccc(Cl)c1)c1ccncc12 [Silmitasertib] + CC(=O)c1c(C)c2cnc(Nc3ccc(N4CCNCC4)cn3)nc2n(C2CCCC2)c1=O [Palbociclib] (partner 0.5 µM)
How it was run: as §1

| Cell Line | relative viability ([1]; first compound 0.04 µM) | relative viability ([1]; first compound 0.4 µM) | relative viability ([1]; first compound 1.265 µM) | relative viability ([1]; first compound 4 µM) | relative viability (Silmitasertib + AZD7762; first compound 0.04 µM) | relative viability (Silmitasertib + AZD7762; first compound 0.4 µM) | relative viability (Silmitasertib + AZD7762; first compound 1.265 µM) | relative viability (Silmitasertib + AZD7762; first compound 4 µM) | relative viability ([2]; first compound 0.04 µM) | relative viability ([2]; first compound 0.4 µM) | relative viability ([2]; first compound 1.265 µM) | relative viability ([2]; first compound 4 µM) | relative viability ([3]; first compound 0.04 µM) | relative viability ([3]; first compound 0.4 µM) | relative viability ([3]; first compound 1.265 µM) | relative viability ([3]; first compound 4 µM) | relative viability ([4]; first compound 0.04 µM) | relative viability ([4]; first compound 0.4 µM) | relative viability ([4]; first compound 1.265 µM) | relative viability ([4]; first compound 4 µM) |
| --- | --- | --- | --- | --- | --- | --- | --- | --- | --- | --- | --- | --- | --- | --- | --- | --- | --- | --- | --- | --- |
| NCI-H3122 | 0.427 | 0.41 | 0.334 | 0.305 | 1.04 | 0.705 | 0.99 | 0.92 | 0.204 | 0.174 | 0.212 | 0.264 | 0.807 | 0.706 | 0.84 | 0.834 | 0.219 | 0.17 | 0.172 | 0.155 |
| NCI-H727 | 0.584 | 0.62 | 0.681 | 0.609 | 0.773 | 0.573 | 0.654 | 0.543 | 0.415 | 0.338 | 0.328 | 0.348 | 0.326 | 0.358 | 0.272 | 0.379 | 0.64 | 0.529 | 0.648 | 0.681 |
| NCI-H441 | 0.61 |  | 0.512 | 0.472 | 1.34 |  | 1.09 | 1.16 | 0.562 |  | 0.313 | 0.231 | 0.651 |  | 0.532 | 0.333 | 0.254 |  | 0.206 | 0.178 |
| HOP-62 | 0.4 |  | 0.341 | 0.296 | 0.554 |  | 0.663 | 0.385 | 0.408 |  | 0.388 | 0.549 | 0.683 |  | 0.639 | 0.567 | 0.466 |  | 0.373 | 0.396 |
| RERF-LC-KJ | 0.546 | 0.531 | 0.382 | 0.248 | 1.07 | 0.785 | 0.763 | 0.344 | 0.926 | 0.722 | 0.661 | 0.541 | 0.879 | 0.735 | 0.393 | 0.435 | 1.16 | 0.993 | 0.758 | 0.798 |
| HCC-44 | 1.13 | 0.853 | 0.802 | 0.691 | 0.978 | 1.04 | 1.08 | 0.978 | 1.15 | 0.906 | 1.02 | 1.07 |  |  |  |  | 0.975 | 1.06 | 1.01 | 0.959 |
| SK-LU-1 | 0.358 | 0.315 | 0.221 | 0.195 |  |  |  |  | 0.733 | 0.46 | 0.298 | 0.289 | 0.203 | 0.164 | 0.172 | 0.175 | 0.424 | 0.342 | 0.245 | 0.312 |
| NCI-H1703 |  |  |  |  | 0.136 |  | 0.153 | 0.146 |  |  |  |  |  |  |  |  |  |  |  |  |
| NCI-H2023 | 0.46 | 0.321 | 0.24 | 0.252 |  |  |  |  | 0.728 | 0.569 | 0.373 | 0.535 | 0.547 | 0.443 | 0.548 | 0.416 | 0.336 | 0.458 | 0.337 | 0.354 |
| NCI-H661 | 0.346 | 0.368 | 0.334 | 0.364 |  |  |  |  | 0.645 | 0.605 | 0.667 | 0.615 | 1.13 | 0.723 | 0.607 | 0.569 | 0.421 | 0.511 | 0.407 | 0.359 |
| COR-L 105 | 0.394 | 0.349 | 0.389 | 0.326 |  |  |  |  | 0.491 | 0.434 | 0.401 | 0.478 | 0.357 | 0.345 | 0.34 | 0.264 | 0.43 | 0.426 | 0.396 | 0.399 |
| NCI-H2228 | 0.287 |  | 0.247 | 0.23 |  |  |  |  | 0.554 | 0.375 | 0.456 | 0.464 | 0.517 |  | 0.523 | 0.528 | 1.02 | 0.313 | 0.467 | 0.701 |
| NCI-H596 | 0.967 | 0.735 | 0.624 | 0.799 | 1.04 | 1.08 | 0.953 | 0.957 | 0.765 | 0.684 | 0.764 | 0.796 | 0.617 | 0.563 | 0.463 | 0.497 |  |  |  |  |
| NCI-H1650 | 0.466 | 0.517 | 0.272 | 0.235 |  |  |  |  | 0.769 | 0.56 | 0.428 | 0.256 | 0.358 | 0.35 | 0.248 | 0.242 | 0.5 | 0.436 | 0.25 | 0.186 |
| NCI-H1792 |  |  |  |  | 0.737 | 0.56 | 0.59 | 0.444 | 0.407 | 0.478 | 0.432 | 0.562 | 0.869 | 0.806 | 0.824 | 0.921 | 0.674 | 0.574 | 0.708 | 0.698 |
| SK-MES-1 | 1.07 | 1.02 | 0.542 | 0.159 |  |  |  |  | 0.589 | 0.477 | 0.535 | 0.469 | 0.47 | 0.283 | 0.294 | 0.232 | 0.359 | 0.322 | 0.253 | 0.275 |
| UMC-11 | 0.199 | 0.218 | 0.184 | 0.16 |  |  |  |  | 0.73 | 0.65 | 0.353 | 0.403 | 0.508 | 0.477 | 0.491 | 0.331 | 0.364 | 0.344 | 0.347 | 0.379 |
| NCI-H1563 |  |  |  |  |  |  |  |  |  |  |  |  | 0.493 | 0.486 |  | 0.431 |  |  |  |  |
| COR-L23 | 0.232 | 0.2 | 0.118 | 0.159 |  |  |  |  | 0.737 | 0.369 | 0.497 | 0.456 | 0.535 | 0.404 | 0.426 | 0.408 | 0.316 | 0.251 | 0.261 | 0.207 |
| SW 1573 | 0.199 | 0.185 | 0.231 | 0.187 |  |  |  |  | 0.529 | 0.54 | 0.478 | 0.439 | 0.624 | 0.516 | 0.576 | 0.451 | 0.415 | 0.373 | 0.309 | 0.337 |

— the supplement of paper PMC10307832
